Test: recombinant barcode read abundance after kanamycin selection (control-corrected) (log10(CPM+1)); higher = more efficient recombination; sequences stand for … in AGTGCAGAGAAAATCGGCCAGTTTTCTCTGCCTGCAGTCCGCATGCCGT…AGATTTATGCAGCGGACTGCCTTTCTCCCAAAGTGATAAACCGGACAGTATCATGGACCGGTTTTCCCGGTAATCCGTATTTGCAAGGTTGGTTTCACT; site = the 11-nt target
Procedure, shortened: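 This pooled E. coli screen matched targets with IS621 bridge RNA target-binding loops. Plating was done in duplicate on chloramphenicol/ampicillin LB agar as a control and on chloramphenicol/ampicillin/kanamycin plus 0.1 mM IPTG. Recombination efficiency reflects barcode counts at recombinant junctions as counts per million, averaged and control-corrected. The figures are log10(CPM+1).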
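Also: IS621 recombinase and bridge RNA in Escherichia coli cells.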

Row | Sequence | recombinant barcode read abundance (log10)
1 | GAGGCAACTTGGGTTCTAACCTGTTGCTT (site CACGCAACTAA) | 0
2 | GAGGCAACTTGGGTTCTAACCTGTTGCTT (site GAGGCAACTAA) | 0.0561
3 | GAGGCTCCTTGGGTTCTAACCTGTTGCCG (site GAGGCTCCTAG) | 0.113
4 | GAGGCTCCTTGGGTTCTAACCTGTTGCCG (site GAGGCTCCTCG) | 0.993
5 | GAGGCTCCTTGGGTTCTAACCTGTTGCCG (site GAGGCTCCTGG) | 0.138
6 | GAGGCTCCTTGGGTTCTAACCTGTTGCCG (site GAGGCTCCTTG) | 0.238
7 | GAGGGTACTTGGGTTCTAACCTGTTGCCT (site GAGCATACTAG) | 0.295
8 | GAGGGTACTTGGGTTCTAACCTGTTGCCT (site GAGGGTACTAG) | 1.76
9 | GAGGGTTCTTGGGTTCTAACCTGTTGCAT (site GAGGGTGCTAG) | 0.528
10 | GAGGGTTCTTGGGTTCTAACCTGTTGCAT (site GAGGGTTCTAT) | 2.66
11 | GAGGTAGCTTGGGTTCTAACCTGTTGCCT (site GAGGTAGCTAG) | 1.18
12 | GAGGTAGCTTGGGTTCTAACCTGTTGCCT (site GATGTATCTAG) | 0.563
13 | GAGGTGCCTTGGGTTCTAACCTGTTGCAG (site ATAACCTCTAG) | 0.174
14 | GAGGTGCCTTGGGTTCTAACCTGTTGCAG (site GAGGTGCCTCT) | 1.44
15 | GAGTAGTCTTGGGTTCTAACCTGTTGCCT (site GAGAAGTCTAG) | 0.0847
16 | GAGTAGTCTTGGGTTCTAACCTGTTGCCT (site GAGCAGTCTAG) | 1.27
17 | GAGTAGTCTTGGGTTCTAACCTGTTGCCT (site GAGGAGTCTAG) | 0.00957
18 | GAGTAGTCTTGGGTTCTAACCTGTTGCCT (site GAGTAGTCTAG) | 2.39

Row | Sequence | recombinant barcode read abundance (log10)
19 | GAGTCTCCTTGGGTTCTAACCTGTTGCGG (site CTTCGGACTAA) | 0.187
20 | GAGTCTCCTTGGGTTCTAACCTGTTGCGG (site GAGTCTCCTCC) | 0.316
21 | GAGTGAGCTTGGGTTCTAACCTGTTGCAT (site GAGAGAGCTAT) | 0.645
22 | GAGTGAGCTTGGGTTCTAACCTGTTGCAT (site GAGCGAGCTAT) | 1.95
23 | GAGTGAGCTTGGGTTCTAACCTGTTGCAT (site GAGGGAGCTAT) | 0.986
24 | GAGTGAGCTTGGGTTCTAACCTGTTGCAT (site GAGTGAGCTAT) | 2.53
25 | GAGTGAGCTTGGGTTCTAACCTGTTGCGT (site GAGCGATCTAC) | 0.689
26 | GAGTGAGCTTGGGTTCTAACCTGTTGCGT (site GAGTGAGCTAC) | 3
27 | GAGTGCTCTTGGGTTCTAACCTGTTGCGT (site GAGCGCTCTAG) | 0.0262
28 | GAGTGCTCTTGGGTTCTAACCTGTTGCGT (site GAGTGCTCTAC) | 2.29
29 | GAGTGGCCTTGGGTTCTAACCTGTTGCCT (site GAGTGGCCTAA) | 0.316
30 | GAGTGGCCTTGGGTTCTAACCTGTTGCCT (site GAGTGGCCTAC) | 0.121
31 | GAGTGGCCTTGGGTTCTAACCTGTTGCCT (site GAGTGGCCTAG) | 0.346
32 | GAGTGGCCTTGGGTTCTAACCTGTTGCCT (site GAGTGGCCTAT) | 0.182
33 | GAGTGGCCTTGGGTTCTAACCTGTTGCGA (site GAGTGGCCTTC) | 2.02
34 | GAGTGGCCTTGGGTTCTAACCTGTTGCGA (site TCCGTATCTCT) | 0.0392
35 | GAGTGGCCTTGGGTTCTAACCTGTTGCGT (site GAGTGGCCTAA) | 0.314
36 | GAGTGGCCTTGGGTTCTAACCTGTTGCGT (site GAGTGGCCTAC) | 2.4
